In assay [1] the test system is advanced solid tumor types. The conditions noted are these: patients with relapsed/refractory BC, SCLC, NSCLC, HNSCC, GE adenocarcinoma; activity in all except NSCLC; cited from earlier work.
For assay [2], the system named is advanced solid tumor types. In words: association of somatically mutated genes/pathways (whole exome sequencing) with response to alisertib in trial patients. The class given is in vivo, human. The note with it: for est: HR (hazard ratio) for progression free survival (PFS): adjusted by baseline, stratified by indication; for est: mean % best tumor size change between mutant and WT groups: all five tumor types, adjusted by tumor indication and tumor baseline size. The source says:
The best tumor size change and progression-free survival (PFS) of the patients were used as the efficacy response endpoints.
The genomic DNA was isolated from 47 patients with 2-4 slides of 5 micron thickness from archived tumor biopsies with Qiagen FFPE kit (Qiagen, Germany). Genomic DNA from blood samples were extracted utilizing blood DNA kit (Qiagen, Germany). Tumor-normal (blood) paired DNAs were sequenced by whole exome DNA sequencing employing Agilent SureSelect exome capture and Illumina Hi-Seq™ technologies.
The downstream analysis was designed to identify potential biomarkers predictive of drug response using the high-confidence mutations obtained from the middle-stream analysis. A linear regression model and Cox proportional hazard model were used for best tumor size change and PFS as endpoints, respectively. Tumor type was considered as a covariate in both models to adjust its confounding effect. In case of linear regression for best tumor size change as an endpoint, baseline tumor size was added as an additional covariate since baseline tumor size is […] correlated with the endpoint. In the following linear regression equation, y=β0+β1x+βc1c1+βc2c2+ε, y, x, c1, c2, and c represent the best tumor size change, a single gene mutation status, tumor type, baseline tumor size, and random error, respectively. When the gene harbors high-confidence mutation(s), x becomes 1; otherwise, it is 0. The 1st covariate c1 was converted into five binary variables to represent the five different tumor types and the 2nd covariate c2 is a continuous variable. As a result, the coefficient fi indicates the contribution of the mutated gene to sensitivity or resistance to alisertib treatment after adjusting the potential confounding effects of the covariates. A p-value was computed for testing the null hypothesis β1=0. Since multiple genes were tested using these models and the p-values were corrected for multiple hypothesis testing using false discovery rate (FDR).
A similar approach was used for the pathway association analysis. A pathway can be defined as a group of genes that are known to be interacting together for a common biological function. […] Two types of statistical tests were selected in order to test the degree of association of mutations on the pathway level and alisertib treatment outcome, particularly best tumor size change. […] A linear regression model was built using this binary variable as an independent variable and tumor type and baseline tumor size were used as covariates, similar to the equation used for gene-level association. Secondly, sequence kernel association tests (SKAT) were run to account for cases where individual mutated genes in a pathway contribute differently to drug sensitivity or resistance. […] As the two methods, linear regression and SKAT, provide different angles in terms of association between pathways and alisertib response, the smaller p-value (the best of the two tests, BOT from here on) was selected as a representative p-value for each pathway. The p-values of the pathways were subjected to multiplicity adjustments in order to control the type I error of the statistical tests.
The Cox proportional hazard models were used to see potential association between mutated genes/pathways and progression-free survival (PFS).
For single gene-level association, the Benjamini & Hochberg (BH) method was used to compute FDR (also known as q-value). For pathway-level association, as multiple statistical association analyses (linear regression, SKAT and BOT) were conducted for each pathway, and pathways are often correlated through commonly present genes, multiplicity adjustment becomes more complicated. To address these challenges, a re-sampling-based multiplicity adjustment was implemented. The null distributions of p-values from pathway association tests were simulated using parametric bootstrapping. […]

We go through 1 molecule from patent publication US20250043353A1, “BIOMARKERS OF RESPONSE TO SELECTIVE INHIBITORS OF AURORA A KINASE” (Millennium Pharmaceuticals, Inc., priority 2015, published 2025).

Take `COc1cc(Nc2ncc3c(n2)-c2ccc(Cl)cc2C(c2c(F)cccc2OC)=NC3)ccc1C(=O)O` [alisertib, 4-{[9-chloro-7-(2-fluoro-6-methoxyphenyl)-5H-pyrimido[5,4-d][2]benzazepin-2-yl]amino}-2-methoxybenzoic acid]: the “single agent antitumor activity” value in assay [1] is on record as “clinically meaningful antitumor activity in four of the five solid tumor types”. The “est: HR (hazard ratio) for progression free survival (PFS)” value is recorded as 0.271 in assay [2] (EP300 mutated vs WT) and 0.129 in assay [2] (MLL3 mutated vs WT). Besides, the “est: mean % best tumor size change between mutant and WT groups” value was −39.70% in assay [2] (FAT1 mutated), 41.96% in assay [2] (FBXW7 mutated) and −28.84% in assay [2] (MLL3 mutated). Also, in assay [2] (patients with mutated WNT or Hippo signaling pathways vs WT), the “response (best tumor size change) of patients with mutated pathway versus wild type” value is given as “respond more favorably”.
